Source: article PMC11144275 (The Lancet. Infectious diseases, 2019)
Counter-ions that a name gives are not always drawn.

Tests used:
EBOV-Makona = assay: microbe, parasite or virus in culture; type: cell-based, Ebola virus
EBOV-Ituri = assay: microbe, parasite or virus in culture; type: cell-based, Ebola virus

## Nc1ccn([C@@H]2O[C@H](CO)[C@@H](O)[C@H]2F)c(=O)n1 [2′-deoxy-2′-fluorocytidine]
EBOV-Makona
  EBOV-Makona Selectivity index: >16
EBOV-Ituri
  EBOV-Ituri Selectivity index: >14

## CCC(CC)COC(=O)[C@H](C)N[P@](=O)(OC[C@H]1O[C@@](C#N)(c2ccc3c(N)ncnn23)[C@H](O)[C@@H]1O)Oc1ccccc1 [Remdesivir]
EBOV-Makona; Zaire ebolavirus, Huh-7, read-out: EC50 EBOV-Makona
  EC50: 12 nM
EBOV-Ituri; Zaire ebolavirus, Huh-7, read-out: EC50 EBOV-Ituri
  EC50: 13 nM
Huh-7 cells
  CC50: 3·63 (2·88) μM

## CCN(CC)CCOc1ccc(C(=C(Cl)c2ccccc2)c2ccccc2)cc1 [Clomifene citrate]
Huh-7 cells
  CC50: 8·43 (1·08) μM

## NCC(=O)Nc1ccc(-n2nc(C(F)(F)F)cc2-c2ccc3c(ccc4ccccc43)c2)cc1 [AR-12]
Huh-7 cells
  CC50: 3·67 (0·14) μM

## COc1c(C)c2c(c(O)c1C/C=C(\C)CCC(=O)OCCN1CCOCC1)C(=O)OC2 [Mycophenolate mofetil]
EBOV-Makona
  EBOV-Makona Selectivity index: 97
EBOV-Ituri
  EBOV-Ituri Selectivity index: 89
Huh-7 cells
  CC50: 14·2 (4·3) μM

## NC(=O)c1ncn([C@@H]2O[C@H](CO)[C@@H](O)[C@H]2O)n1 [Ribavirin]
EBOV-Makona
  EBOV-Makona Selectivity index: >4
EBOV-Ituri
  EBOV-Ituri Selectivity index: >3

## CN(C)CCOc1ccc(/C(=C(/CCCl)c2ccccc2)c2ccccc2)cc1 [Toremifene citrate]
EBOV-Makona
  EBOV-Makona Selectivity index: >250
EBOV-Ituri
  EBOV-Ituri Selectivity index: >625

## CC/C(=C(\c1ccccc1)c1ccc(OCCN(C)C)cc1)c1ccccc1 [Tamoxifen]
Huh-7 cells
  CC50: 16·29 (12·05) μM
